Values of other authors, collected in US10952973B2, “Production method of pregabalin-containing composition and pregabalin-containing composition” (NITTO DENKO CORPORATION, priority 2018, dated 2021).

For `CC(C)C[C@H](CN)CC(=O)O` [pregabalin, Pregabalin], which “acid dissociation constant (pKa) of the carboxyl group” value (carboxyl group of pregabalin) is on record?
The value was “about 4.2”.

For `CCCCCCCCCCCCOS(=O)(=O)O` [dodecylsulfuric acid], which “pKa of the acid aqueous solution” value (23° C., 0.35 mol/L aqueous solution) is on record?
The value was −3.
